In the NIST ThermoML archive (doi:10.1016/j.tca.2017.04.014):

What was measured:
[1] = molar heat capacity at constant pressure; xn = mol fraction of the nth substance listed; conditions: 101.3 kPa, Crystal, DSC, x2 = 0
[2] = xn = mol fraction of the nth substance listed; conditions: 298.15 K, 101.3 kPa, Crystal, x2 = 0
[3] = 298.15 K, 101.3 kPa, Crystal
[4] = molar heat capacity at constant pressure; conditions: 101.33 kPa, Crystal, DSC

[O-2].[O-2].[U+4] [uranium dioxide] + [O-2].[O-2].[Th+4]
Conditions	mass density [kg/m3]	molar heat capacity at constant pressure [J/K/mol]
[1], 300 K	–	64.6
[1], 310 K	–	66.2
[1], 320 K	–	66.8
[1], 330 K	–	67.7
[1], 340 K	–	68.7
[1], 350 K	–	69.1
[1], 360 K	–	69.5
[1], 370 K	–	70.5
[1], 380 K	–	71.2
[1], 390 K	–	71.2
[1], 400 K	–	72.5
[1], 410 K	–	72.8
[1], 420 K	–	73.4
[1], 430 K	–	73.5
[1], 440 K	–	74.4
[1], 450 K	–	74.6
[1], 460 K	–	74.9
[1], 470 K	–	75.5
[1], 480 K	–	76.2
[1], 490 K	–	76.4
[1], 500 K	–	76.5
[1], 510 K	–	76.6
[1], 520 K	–	76.7
[1], 530 K	–	77.1
[1], 540 K	–	77
[1], 550 K	–	77.1
[1], 560 K	–	77.3
[1], 570 K	–	77.9
[1], 580 K	–	78.2
[1], 590 K	–	79
[1], 600 K	–	79.1
[1], 610 K	–	79.7
[1], 620 K	–	79.4
[1], 630 K	–	79.6
[1], 640 K	–	80.3
[1], 650 K	–	79.8
[1], 660 K	–	80.5
[1], 670 K	–	80.5
[1], 680 K	–	80.7
[1], 690 K	–	81.1
[1], 700 K	–	80.4
[1], 710 K	–	80.8
[1], 720 K	–	81.2
[1], 730 K	–	81.7
[1], 740 K	–	82.2
[1], 750 K	–	82.9
[1], 760 K	–	82.4
[1], 770 K	–	82.7
[1], 780 K	–	83.4
[1], 790 K	–	83.9
[1], 800 K	–	83.7
[1], 810 K	–	84.1
[1], 820 K	–	83.8
[1], 830 K	–	84.2
[1], 840 K	–	84.1
[1], 850 K	–	83.7
[1], 860 K	–	84.1
[1], 870 K	–	84.5
[2], From pellet mass and volume	10570	–
[2], X-ray diffraction	10970	–
[2], buoyancy	10660	–

[O-2].[O-2].[Th+4] [thorium dioxide]
Conditions	mass density [kg/m3]	molar heat capacity at constant pressure [J/K/mol]
[3], From pellet mass and volume	9390	–
[3], X-ray diffraction	10000	–
[3], buoyancy	9430	–
[4], 300 K	–	62.1
[4], 310 K	–	61.8
[4], 320 K	–	62.8
[4], 330 K	–	63.5
[4], 340 K	–	64.2
[4], 350 K	–	65.1
[4], 360 K	–	65.6
[4], 370 K	–	65.9
[4], 380 K	–	66.8
[4], 390 K	–	67.3
[4], 400 K	–	67.7
[4], 410 K	–	68
[4], 420 K	–	68.4
[4], 430 K	–	68.6
[4], 440 K	–	68.9
[4], 450 K	–	69.6
[4], 460 K	–	69.8
[4], 470 K	–	70.1
[4], 480 K	–	70.2
[4], 490 K	–	70.5
[4], 500 K	–	70.7
[4], 510 K	–	70.9
[4], 520 K	–	71.2
[4], 530 K	–	71.4
[4], 540 K	–	71.7
[4], 550 K	–	71.9
[4], 560 K	–	72
[4], 570 K	–	72.1
[4], 580 K	–	72.3
[4], 590 K	–	72.5
[4], 600 K	–	72.5
[4], 610 K	–	72.5
[4], 620 K	–	73
[4], 630 K	–	73
[4], 640 K	–	73.3
[4], 650 K	–	73.6
[4], 660 K	–	73.5
[4], 670 K	–	73.6
[4], 680 K	–	73.6
[4], 690 K	–	73.4
[4], 700 K	–	73.8
[4], 710 K	–	74.5
[4], 720 K	–	74.5
[4], 730 K	–	74.6
[4], 739 K	–	74.7
[4], 750 K	–	74.6
[4], 760 K	–	75
[4], 770 K	–	75.3
[4], 780 K	–	75.3
[4], 790 K	–	75.3
[4], 800 K	–	75.7
[4], 810 K	–	75.7
[4], 820 K	–	75.7
[4], 830 K	–	75.9
[4], 840 K	–	76
[4], 850 K	–	76.1
[4], 860 K	–	76.4
[4], 870 K	–	76.1

[O-2].[O-2].[U+4] [uranium dioxide]
Conditions	mass density [kg/m3]	molar heat capacity at constant pressure [J/K/mol]
[3], From pellet mass and volume	10570	–
[3], X-ray diffraction	10970	–
[3], buoyancy	10660	–
[4], 300 K	–	64.6
[4], 310 K	–	66.2
[4], 320 K	–	66.8
[4], 330 K	–	67.7
[4], 340 K	–	68.7
[4], 350 K	–	69.1
[4], 360 K	–	69.5
[4], 370 K	–	70.5
[4], 380 K	–	71.2
[4], 390 K	–	71.2
[4], 400 K	–	72.5
[4], 410 K	–	72.8
[4], 420 K	–	73.4
[4], 430 K	–	73.5
[4], 440 K	–	74.4
[4], 450 K	–	74.6
[4], 460 K	–	74.9
[4], 470 K	–	75.5
[4], 480 K	–	76.2
[4], 490 K	–	76.4
[4], 500 K	–	76.5
[4], 510 K	–	76.6
[4], 520 K	–	76.7
[4], 530 K	–	77.1
[4], 540 K	–	77
[4], 550 K	–	77.1
[4], 560 K	–	77.3
[4], 570 K	–	77.9
[4], 580 K	–	78.2
[4], 590 K	–	79
[4], 600 K	–	79.1
[4], 610 K	–	79.7
[4], 620 K	–	79.4
[4], 630 K	–	79.6
[4], 640 K	–	80.3
[4], 650 K	–	79.8
[4], 660 K	–	80.5
[4], 670 K	–	80.5
[4], 680 K	–	80.7
[4], 690 K	–	81.1
[4], 700 K	–	80.4
[4], 710 K	–	80.8
[4], 720 K	–	81.2
[4], 730 K	–	81.7
[4], 740 K	–	82.2
[4], 750 K	–	82.9
[4], 760 K	–	82.4
[4], 770 K	–	82.7
[4], 780 K	–	83.4
[4], 790 K	–	83.9
[4], 800 K	–	83.7
[4], 810 K	–	84.1
[4], 820 K	–	83.8
[4], 830 K	–	84.2
[4], 840 K	–	84.1
[4], 850 K	–	83.7
[4], 860 K	–	84.1
[4], 870 K	–	84.5
